Laboratory results from US8299048B2, “Hexahydrocyclopentyl[f]indazole sulfonamides and derivatives thereof as selective glucocorticoid receptor modulators” (Merck Sharp & Dohme Corp., priority 2008, dated 2012).
pEC50: −log10 of the molar value.

Experiments:
human GR [1] = target: T1, human GR (Homo sapiens, UniProt P04150); experiment: Trans-Activation Modulation of Glucocorticoid Receptor (GRAMMER), MMTV-LUC reporter, agonist mode; type: cell-based; design: endogenous in cells; settings: for Emax: A549, A549 cells, maximum activity, read-out: Transactivation A549 Cells GRAMMER Emax; for pEC50: A549 cells, inflection point, read-out: Transactivation A549 Cells GRAMMER IP
T1 sequence (P04150 1-777): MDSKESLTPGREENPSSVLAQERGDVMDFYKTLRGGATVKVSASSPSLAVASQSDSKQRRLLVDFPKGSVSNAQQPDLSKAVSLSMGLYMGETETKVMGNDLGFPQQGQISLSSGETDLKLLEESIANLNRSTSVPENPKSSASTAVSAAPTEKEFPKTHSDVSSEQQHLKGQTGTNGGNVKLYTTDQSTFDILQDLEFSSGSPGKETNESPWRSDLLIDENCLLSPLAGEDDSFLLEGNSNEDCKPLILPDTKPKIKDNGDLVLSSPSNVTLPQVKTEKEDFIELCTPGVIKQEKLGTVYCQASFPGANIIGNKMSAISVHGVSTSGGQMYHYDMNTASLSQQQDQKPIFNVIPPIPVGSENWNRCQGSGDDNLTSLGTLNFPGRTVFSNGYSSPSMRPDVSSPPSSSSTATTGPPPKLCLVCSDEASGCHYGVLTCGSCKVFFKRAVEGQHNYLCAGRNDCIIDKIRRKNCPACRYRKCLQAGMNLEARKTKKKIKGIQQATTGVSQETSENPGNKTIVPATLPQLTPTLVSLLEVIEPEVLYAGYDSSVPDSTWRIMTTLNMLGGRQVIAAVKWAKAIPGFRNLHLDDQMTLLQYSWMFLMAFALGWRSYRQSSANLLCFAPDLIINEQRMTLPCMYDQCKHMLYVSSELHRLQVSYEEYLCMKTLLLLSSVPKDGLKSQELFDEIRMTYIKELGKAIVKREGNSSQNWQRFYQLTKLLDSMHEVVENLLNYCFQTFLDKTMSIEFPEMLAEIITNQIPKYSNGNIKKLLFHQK
Summary of the method: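 Readout is luciferase from a modified MMTV LTR promoter after 24 h compound exposure alongside 10 nM dexamethasone (100% activity reference), DMSO ≤1%.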

human GR [2] = target: T1, human GR; experiment: Transrepression Assay (GITAR), TNFα-β-lactamase reporter in U937 cells; type: cell-based; design: U937 cells contain an endogenous glucocorticoid receptor (GR); endogenous in cells; host or cells: U937 cells stably transfected with the TNF-alpha promoter/beta-lactamase reporter; settings: for pEC50: U937 cells, inflection point, read-out: Transrepression U937 Cells GITAR IP; for GITAR > GRAMM % SEP: GITAR Emax minus GRAMMER Emax
Summary of the method: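 Read-out: CCF2-AM β-lactamase signal after 70–90 min loading at room temperature. U937 TNF-α-promoter reporter cells (endogenous GR), compound 30–45 min at 37 °C, then PMA 5 ng/ml + LPS 100 ng/ml final, ~18 hr. Normalised to 100 nM dexamethasone = 100%.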

[3] = U-937, U937 cells, maximum activity, read-out: Transrepression U937 Cells GITAR Emax
[4] = U-937, activity repressed by 100 nM dexamethasone alone set as 100%, read-out: maximal activity in the transrepression (GITAR) assay

Emax (human GR [1]) [%] | pEC50 (human GR [1]) | pEC50 (human GR [2]) | Emax (human GR [2]; [3]) [%] | Emax (human GR [2]; [4]) [%] | GITAR > GRAMM % SEP (human GR [2]) [%] | Compound
22.7 | 6.42 | 6.09 | 47.5 | > 5 |  | Cn1cc(S(=O)(=O)N(CC2CCCO2)C[C@H]2CCC3=Cc4c(cnn4-c4ccc(F)cc4)C[C@@]32C)c(C(F)(F)F)n1 (stereo partly drawn) [Example 175, N-{[(4αR,5S)-1-(4-fluorophenyl)-4α-methyl-1,4,4α,5,6,7-hexahydrocyclopenta[f]indazol-5-yl]methyl}-1-methyl-N-(tetrahydrofuran-2-ylmethyl)-3-(trifluoromethyl)-1H-pyrazole-4-sulfonamide]
12.9 | 6.27 | 6.31 | 30 | > 5 | 17.1 | C[C@]12Cc3cnn(-c4ccc(F)cc4)c3C=C1CC[C@@H]2CN(CCCc1ccccc1)S(=O)(=O)c1ccccc1F [Example 195, 2-fluoro-N-{[(4αR,5S)-1-(4-fluorophenyl)-4α-methyl-1,4,4α,5,6,7-hexahydrocyclopenta[f]indazol-5-yl]methyl}-N-(3-phenylpropyl)benzenesulfonamide]
38.1 | 6.61 | 6.73 | 77.7 | > 5 | 39.5 | COC(=O)c1ccccc1CS(=O)(=O)N(C[C@H]1CCC2=Cc3c(cnn3-c3ccc(F)cc3)C[C@@]21C)C[C@@H](C)O [Example 180, methyl 2-[({{[(4αR,5S)-1-(4-fluorophenyl)-4α-methyl-1,4,4α,5,6,7-hexahydrocyclopenta[f]indazol-5-yl]methyl}[(2R)-2-hydroxypropyl]amino}sulfonyl)methyl]benzoatee]
58.3 | 6.20 | 6.05 | 74 | > 5 | 15.7 | C[C@]12Cc3cnn(-c4ccc(F)cc4)c3C=C1CC[C@@H]2CN(CC#N)S(=O)(=O)c1cc(F)c(F)cc1F [Example 47, N-(cyanomethyl)-2,4,5-trifluoro-N-{[(4αR,5S)-1-(4-fluorophenyl)-4α-methyl-1,4,4α,5,6,7-hexahydrocyclopenta[f]indazol-5-yl]methyl}benzenesulfonamide]
10.5 | 6.07 | 6.25 | 37.7 | > 5 | 27.2 | C[C@]12Cc3cnn(-c4ccc(F)cc4)c3C=C1CC[C@@H]2CN(CC#N)S(=O)(=O)c1cc(Cl)c(Cl)s1 [Example 24, 4,5-dichloro-N-(cyanomethyl)-N-{[(4αR,5S)-1-(4-fluorophenyl)-4α-methyl-1,4,4α,5,6,7-hexahydrocyclopenta[f]indazol-5-yl]methyl}thiophene-2-sulfonamide]
1.7 | 5.30 | 7.46 | 17.1 | > 5 | 15.5 | CN1CCOc2cc(S(=O)(=O)N(CC#N)C[C@H]3CCC4=Cc5c(cnn5-c5ccc(F)cc5)C[C@@]43C)ccc21 [Example 39, N-(cyanomethyl)-N-{[(4αR,5S)-1-(4-fluorophenyl)-4α-methyl-1,4,4α,5,6,7-hexahydrocyclopenta[f]indazol-5-yl]methyl}-4-methyl-3,4-dihydro-2H-1,4-benzoxazine-7-sulfonamide]
8.2 | 5.91 | 5.94 | 15.5 | > 5 | 7.3 | C[C@]12Cc3cnn(-c4ccc(F)cc4)c3C=C1CC[C@@H]2CN(CCO)S(=O)(=O)Cc1ccccc1C(N)=O [Example 198, 2-({[{[(4αR,5S)-1-(4-fluorophenyl)-4α-methyl-1,4,4α,5,6,7-hexahydrocyclopenta[f]indazol-5-yl]methyl}(2-hydroxyethyl)amino]sulfonyl}methyl)benzamide]
27.1 | 6.47 | 6.36 | 37.2 | > 5 | 10.1 | C[C@]12Cc3cnn(-c4ccc(F)cc4)c3C=C1CC[C@@H]2CN(CC1CCCO1)S(=O)(=O)c1ccc(C(N)=O)cc1 (stereo partly drawn) [Example 191, 4-{[{[(4αR,5S)-1-(4-fluorophenyl)-4α-methyl-1,4,4α,5,6,7-hexahydrocyclopenta[f]indazol-5-yl]methyl}(tetrahydrofuran-2-ylmethyl)amino]sulfonyl}benzamide]
10.7 | 6.40 | 6.14 | 42.4 | > 5 | 31.8 | COCCN(C[C@H]1CCC2=Cc3c(cnn3-c3ccc(F)cc3)C[C@@]21C)S(=O)(=O)c1cn(C)nc1C(F)(F)F [Example 172, N-{[(4αR,5S)-1-(4-fluorophenyl)-4α-methyl-1,4,4α,5,6,7-hexahydrocyclopenta[f]indazol-5-yl]methyl}-N-(2-methoxyethyl)-1-methyl-3-(trifluoromethyl)-1H-pyrazole-4-sulfonamide]
21.6 | 6.38 | 6.25 | 60.3 | > 5 | 38.7 | C[C@@H](O)CN(C[C@H]1CCC2=Cc3c(cnn3-c3ccc(F)cc3)C[C@@]21C)S(=O)(=O)Cc1ccccc1C(N)=O [Example 184, 2-[({{[(4αR,5S)-1-(4-fluorophenyl)-4α-methyl-1,4,4α,5,6,7-hexahydrocyclopenta[f]indazol-5-yl]methyl}[(2R)-2-hydroxypropyl]amino}sulfonyl)methyl]benzamide]
81.1 | 6.28 | 6.37 | 85.3 | > 5 | 4.2 | CCS(=O)(=O)N(CC1CCCO1)C[C@H]1CCC2=Cc3c(cnn3-c3ccc(F)cc3)C[C@@]21C (stereo partly drawn) [Example 174, N-{[(4αR,5S)-1-(4-fluorophenyl)-4α-methyl-1,4,4α,5,6,7-hexahydrocyclopenta[f]indazol-5-yl]methyl}-N-(tetrahydrofuran-2-ylmethyl)ethanesulfonamide]
20 | 6.40 | 6.38 | 35.3 | > 5 | 15.3 | COC(=O)c1ccccc1S(=O)(=O)N(CC1CC1)C[C@H]1CCC2=Cc3c(cnn3-c3ccc(F)cc3)C[C@@]21C [Example 18, methyl 2-[((cyclopropylmethyl){[(4αR,5S)-1-(4-fluorophenyl)-4α-methyl-1,4,4α,5,6,7-hexahydrocyclopenta[f]indazol-5 yl]methyl}amino)sulfonyl]benzoate]
76.4 | 6.34 | 6.65 | 89.4 | > 5 | 13.0 | C[C@]12Cc3cnn(-c4ccc(F)cc4)c3C=C1CC[C@@H]2CN(CC#N)S(=O)(=O)c1ccc(F)c(F)c1 [Example 25, N-(cyanomethyl)-3,4-difluoro-N-{[(4αR,5S)-1-(4-fluorophenyl)-4α-methyl-1,4,4α,5,6,7-hexahydrocyclopenta[f]indazol-5-yl]methyl}benzenesulfonamide]
23 | 6.11 | 6.09 | 52 | > 5 | 29.0 | C[C@]12Cc3cnn(-c4ccc(F)cc4)c3C=C1CC[C@@H]2CN(CCO)S(=O)(=O)c1ccc(C#N)cc1Cl [Example 60, 2-chloro-4-cyano-N-{[(4αR,5S)-1-(4-fluorophenyl)-4α-methyl-1,4,4α,5,6,7-hexahydrocyclopenta[f]indazol-5-yl]methyl}-N-(2-hydroxyethyl)benezenesulfonamide]
5.8 | 6.38 | 5.81 | 31.3 | > 5 | 25.5 | C[C@]12Cc3cnn(-c4ccc(F)cc4)c3C=C1CC[C@@H]2CN(CCO)S(=O)(=O)c1cccc(Cl)c1Cl [Example 61, 2,3-dichloro-N-{[(4αR,5S)-1-(4-fluorophenyl)-4α-methyl-1,4,4α,5,6,7-hexahydrocyclopenta[f]indazol-5-yl]methyl}-N-(2-hydroxyethyl)benezenesulfonamide]
